From PubChem BioAssay AID1963958 (Molecular Pharmacology Branch, DTP, NCI, 2024)

System: MDA-MB-231 multicell spheroids, viability
Assay: Anticancer human tumor MDA-MB-231 cell line growth inhibition [PI3K];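 further: spheroids exposed to agents for seven days before reading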;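 on viability, T/C: percent of vehicle control luminescence with DMSO treated spheroids as 100%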
Details: for IC50: curve of first compound; for viability, T/C: stronger effect = lower value
How it was run: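 Combination activity was assessed by viability in multicellular tumor spheroids carrying HUVEC and MSC components. Agents were tested with PI3K inhibitors from a Cmax-based top dose (or 10 microM) downward in half-log increments.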

[1] = second compound 0.0316 µM, first compound 0.0316 µM
[2] = second compound 0.0316 µM, first compound 0.1 µM
[3] = second compound 0.0316 µM, first compound 0.316 µM
[4] = second compound 0.0316 µM, first compound 1 µM
[5] = second compound 0.0316 µM, first compound 3.16 µM
[6] = second compound 0.0316 µM, first compound 10 µM
[7] = second compound 0.1 µM, first compound 0.0316 µM
[8] = second compound 0.1 µM, first compound 0.1 µM
[9] = second compound 0.1 µM, first compound 0.316 µM
[10] = second compound 0.1 µM, first compound 1 µM
[11] = second compound 0.1 µM, first compound 3.16 µM
[12] = second compound 0.1 µM, first compound 10 µM
[13] = second compound 0.316 µM, first compound 0.0316 µM
[14] = second compound 0.316 µM, first compound 0.1 µM
[15] = second compound 0.316 µM, first compound 0.316 µM
[16] = second compound 0.316 µM, first compound 1 µM
[17] = second compound 0.316 µM, first compound 3.16 µM
[18] = second compound 0.316 µM, first compound 10 µM
[19] = second compound 1 µM, first compound 0.0316 µM
[20] = second compound 1 µM, first compound 0.1 µM
[21] = second compound 1 µM, first compound 0.316 µM
[22] = second compound 1 µM, first compound 1 µM
[23] = second compound 1 µM, first compound 3.16 µM
[24] = second compound 1 µM, first compound 10 µM
[25] = second compound 3.16 µM, first compound 0.0316 µM
[26] = second compound 3.16 µM, first compound 0.1 µM
[27] = second compound 3.16 µM, first compound 0.316 µM
[28] = second compound 3.16 µM, first compound 1 µM
[29] = second compound 3.16 µM, first compound 3.16 µM
[30] = second compound 3.16 µM, first compound 10 µM
[31] = second compound 10 µM, first compound 0.0316 µM
[32] = second compound 10 µM, first compound 0.1 µM
[33] = second compound 10 µM, first compound 0.316 µM
[34] = second compound 10 µM, first compound 1 µM
[35] = second compound 10 µM, first compound 3.16 µM
[36] = second compound 10 µM, first compound 10 µM

C[C@@H](NC(=O)c1ncnc(N)c1Cl)c1ncc(C(=O)Nc2cc(C(F)(F)F)c(Cl)cn2)s1 + Cc1nc(NC(=O)N2CCCC2C(N)=O)sc1-c1ccnc(C(C)(C)C(F)(F)F)c1
IC50 (second compound 0.0316 µM): > 10000 nM | IC50 (second compound 0.1 µM): 3770 nM | IC50 (second compound 0.316 µM): 860 nM | IC50 (second compound 1 µM): 352 nM | IC50 (second compound 3.16 µM): 94.7 nM | IC50 (second compound 10 µM): < 31.6 nM | viability, T/C [1]: 112% | viability, T/C [2]: 77.8% | viability, T/C [3]: 75% | viability, T/C [4]: 72.1% | viability, T/C [5]: 61.3% | viability, T/C [6]: 44.9% | viability, T/C [7]: 99.4% | viability, T/C [8]: 77.2% | viability, T/C [9]: 61.8% | viability, T/C [10]: 67.7% | viability, T/C [11]: 53.6% | viability, T/C [12]: 41.3% | viability, T/C [13]: 81% | viability, T/C [14]: 63.7% | viability, T/C [15]: 53.9% | viability, T/C [16]: 50.2% | viability, T/C [17]: 49.9% | viability, T/C [18]: 37.1% | viability, T/C [19]: 74.8% | viability, T/C [20]: 61% | viability, T/C [21]: 47.1% | viability, T/C [22]: 44.8% | viability, T/C [23]: 38.8% | viability, T/C [24]: 29.2% | viability, T/C [25]: 60.2% | viability, T/C [26]: 48.7% | viability, T/C [27]: 40.6% | viability, T/C [28]: 37.7% | viability, T/C [29]: 35.7% | viability, T/C [30]: 27.4% | viability, T/C [31]: 42.3% | viability, T/C [32]: 37.2% | viability, T/C [33]: 32.3% | viability, T/C [34]: 30.9% | viability, T/C [35]: 24.6% | viability, T/C [36]: 14.9%

Cn1ncc(Cl)c1-c1cc(C(=O)NC(CN)Cc2cccc(F)c2)sc1Cl (stereo unspecified) + Cc1nc(NC(=O)N2CCCC2C(N)=O)sc1-c1ccnc(C(C)(C)C(F)(F)F)c1
IC50 (second compound 0.0316 µM): 3290 nM | IC50 (second compound 0.1 µM): 2710 nM | IC50 (second compound 0.316 µM): 1900 nM | IC50 (second compound 1 µM): 1900 nM | IC50 (second compound 3.16 µM): 1800 nM | IC50 (second compound 10 µM): 2480 nM | viability, T/C [1]: 104% | viability, T/C [2]: 89.2% | viability, T/C [3]: 82.9% | viability, T/C [4]: 71.8% | viability, T/C [5]: 49.9% | viability, T/C [6]: 28.8% | viability, T/C [7]: 86.6% | viability, T/C [8]: 83.3% | viability, T/C [9]: 81% | viability, T/C [10]: 66.2% | viability, T/C [11]: 47.8% | viability, T/C [12]: 24.4% | viability, T/C [13]: 76% | viability, T/C [14]: 80.8% | viability, T/C [15]: 70.5% | viability, T/C [16]: 64.8% | viability, T/C [17]: 38.8% | viability, T/C [18]: 25.1% | viability, T/C [19]: 67.7% | viability, T/C [20]: 72.3% | viability, T/C [21]: 64.3% | viability, T/C [22]: 57% | viability, T/C [23]: 44.4% | viability, T/C [24]: 24.5% | viability, T/C [25]: 72.1% | viability, T/C [26]: 66.6% | viability, T/C [27]: 66.7% | viability, T/C [28]: 57.6% | viability, T/C [29]: 42.7% | viability, T/C [30]: 26.6% | viability, T/C [31]: 69% | viability, T/C [32]: 62% | viability, T/C [33]: 57.9% | viability, T/C [34]: 60.4% | viability, T/C [35]: 48% | viability, T/C [36]: 23.5%

Cn1ncnc1[C@H]1c2n[nH]c(=O)c3cc(F)cc(c23)N[C@@H]1c1ccc(F)cc1 + Cc1nc(NC(=O)N2CCCC2C(N)=O)sc1-c1ccnc(C(C)(C)C(F)(F)F)c1
IC50 (second compound 0.0316 µM): > 100 nM | IC50 (second compound 0.1 µM): > 100 nM | IC50 (second compound 0.316 µM): > 100 nM | IC50 (second compound 1 µM): > 100 nM | IC50 (second compound 3.16 µM): > 100 nM | IC50 (second compound 10 µM): > 100 nM | viability, T/C (second compound 0.0316 µM, first compound 0.000316 µM): 89.3% | viability, T/C (second compound 0.0316 µM, first compound 0.001 µM): 88.9% | viability, T/C (second compound 0.0316 µM, first compound 0.00316 µM): 86.8% | viability, T/C (second compound 0.0316 µM, first compound 0.01 µM): 83.4% | viability, T/C [1]: 79% | viability, T/C [2]: 72.6% | viability, T/C (second compound 0.1 µM, first compound 0.000316 µM): 88.4% | viability, T/C (second compound 0.1 µM, first compound 0.001 µM): 82% | viability, T/C (second compound 0.1 µM, first compound 0.00316 µM): 77.5% | viability, T/C (second compound 0.1 µM, first compound 0.01 µM): 68.7% | viability, T/C [7]: 65% | viability, T/C [8]: 63.2% | viability, T/C (second compound 0.316 µM, first compound 0.000316 µM): 67.2% | viability, T/C (second compound 0.316 µM, first compound 0.001 µM): 75.2% | viability, T/C (second compound 0.316 µM, first compound 0.00316 µM): 65.6% | viability, T/C (second compound 0.316 µM, first compound 0.01 µM): 64.1% | viability, T/C [13]: 59.7% | viability, T/C [14]: 53.5% | viability, T/C (second compound 1 µM, first compound 0.000316 µM): 68.3% | viability, T/C (second compound 1 µM, first compound 0.001 µM): 66% | viability, T/C (second compound 1 µM, first compound 0.00316 µM): 65.1% | viability, T/C (second compound 1 µM, first compound 0.01 µM): 60% | viability, T/C [19]: 55.2% | viability, T/C [20]: 49.7% | viability, T/C (second compound 3.16 µM, first compound 0.000316 µM): 64.5% | viability, T/C (second compound 3.16 µM, first compound 0.001 µM): 63.4% | viability, T/C (second compound 3.16 µM, first compound 0.00316 µM): 64.5% | viability, T/C (second compound 3.16 µM, first compound 0.01 µM): 54% | viability, T/C [25]: 54.6% | viability, T/C [26]: 50.4% | viability, T/C (second compound 10 µM, first compound 0.000316 µM): 66% | viability, T/C (second compound 10 µM, first compound 0.001 µM): 63.4% | viability, T/C (second compound 10 µM, first compound 0.00316 µM): 56% | viability, T/C (second compound 10 µM, first compound 0.01 µM): 59.8% | viability, T/C [31]: 54.4% | viability, T/C [32]: 48.8%
